Experimental data published in ChEMBL document CHEMBL2429768, “Eco-friendly synthesis and antimicrobial activities of substituted-5-(1H-indol-3-yl)methylene)-2,2-dimethyl-1,3-dioxane-4,6-dione derivatives” (2013).
≈ marks a conversion by molar mass, not a printed value.

Key:
Assay type in all cases: functional
Aspergillus niger [1] = assay: Antifungal activity against Aspergillus niger at 50 ug/ml after 72 hrs by agar well diffusion method; details: read-out: DIZ
Fusarium oxysporum [2] = assay: Antifungal activity against Fusarium oxysporum at 500 ug/ml after 72 hrs by agar well diffusion method; details: read-out: DIZ
Fusarium oxysporum [3] = assay: Antifungal activity against Fusarium oxysporum at 300 ug/ml after 72 hrs by agar well diffusion method; details: read-out: DIZ
Fusarium oxysporum [4] = assay: Antifungal activity against Fusarium oxysporum at 200 ug/ml after 72 hrs by agar well diffusion method; details: read-out: DIZ
Fusarium oxysporum [5] = assay: Antifungal activity against Fusarium oxysporum at 100 ug/ml after 72 hrs by agar well diffusion method; details: read-out: DIZ
Fusarium oxysporum [6] = assay: Antifungal activity against Fusarium oxysporum at 50 ug/ml after 72 hrs by agar well diffusion method; details: read-out: DIZ
Rhizoctonia solani [7] = assay: Antifungal activity against Rhizoctonia solani at 500 ug/ml after 72 hrs by agar well diffusion method; details: read-out: DIZ
Rhizoctonia solani [8] = assay: Antifungal activity against Rhizoctonia solani at 300 ug/ml after 72 hrs by agar well diffusion method; details: read-out: DIZ
Rhizoctonia solani [9] = assay: Antifungal activity against Rhizoctonia solani at 200 ug/ml after 72 hrs by agar well diffusion method; details: read-out: DIZ
Rhizoctonia solani [10] = assay: Antifungal activity against Rhizoctonia solani at 100 ug/ml after 72 hrs by agar well diffusion method; details: read-out: DIZ
Rhizoctonia solani [11] = assay: Antifungal activity against Rhizoctonia solani at 50 ug/ml after 72 hrs by agar well diffusion method; details: read-out: DIZ
Bacillus subtilis [12] = assay: Antibacterial activity against Bacillus subtilis at 500 ug/ml after 24 hrs by agar well diffusion method; details: read-out: DIZ
Bacillus subtilis [13] = assay: Antibacterial activity against Bacillus subtilis at 300 ug/ml after 24 hrs by agar well diffusion method; details: read-out: DIZ
Bacillus subtilis [14] = assay: Antibacterial activity against Bacillus subtilis at 200 ug/ml after 24 hrs by agar well diffusion method; details: read-out: DIZ
Bacillus subtilis [15] = assay: Antibacterial activity against Bacillus subtilis at 100 ug/ml after 24 hrs by agar well diffusion method; details: read-out: DIZ
Bacillus subtilis [16] = assay: Antibacterial activity against Bacillus subtilis at 50 ug/ml after 24 hrs by agar well diffusion method; details: read-out: DIZ
Staphylococcus aureus [17] = assay: Antibacterial activity against Staphylococcus aureus ATCC 6538 at 500 ug/ml after 24 hrs by agar well diffusion method; details: ATCC 6538, 24 h, read-out: DIZ
Staphylococcus aureus [18] = assay: Antibacterial activity against Staphylococcus aureus ATCC 6538 at 300 ug/ml after 24 hrs by agar well diffusion method; details: ATCC 6538, 24 h, read-out: DIZ
Staphylococcus aureus [19] = assay: Antibacterial activity against Staphylococcus aureus ATCC 6538 at 200 ug/ml after 24 hrs by agar well diffusion method; details: ATCC 6538, 24 h, read-out: DIZ
Staphylococcus aureus [20] = assay: Antibacterial activity against Staphylococcus aureus ATCC 6538 at 100 ug/ml after 24 hrs by agar well diffusion method; details: ATCC 6538, 24 h, read-out: DIZ
Escherichia coli [21] = assay: Antibacterial activity against Escherichia coli ATCC 8739 at 300 ug/ml after 24 hrs by agar well diffusion method; details: ATCC 8739, 24 h, read-out: DIZ
Escherichia coli [22] = assay: Antibacterial activity against Escherichia coli ATCC 8739 at 200 ug/ml after 24 hrs by agar well diffusion method; details: ATCC 8739, 24 h, read-out: DIZ
Escherichia coli [23] = assay: Antibacterial activity against Escherichia coli ATCC 8739 at 100 ug/ml after 24 hrs by agar well diffusion method; details: ATCC 8739, 24 h, read-out: DIZ
Escherichia coli [24] = assay: Antibacterial activity against Escherichia coli ATCC 8739 at 50 ug/ml after 24 hrs by agar well diffusion method; details: ATCC 8739, 24 h, read-out: DIZ
Klebsiella pneumoniae [25] = assay: Antibacterial activity against Klebsiella pneumoniae at 500 ug/ml after 24 hrs by agar well diffusion method; details: read-out: DIZ
Klebsiella pneumoniae [26] = assay: Antibacterial activity against Klebsiella pneumoniae at 300 ug/ml after 24 hrs by agar well diffusion method; details: read-out: DIZ
Klebsiella pneumoniae [27] = assay: Antibacterial activity against Klebsiella pneumoniae at 200 ug/ml after 24 hrs by agar well diffusion method; details: read-out: DIZ
Klebsiella pneumoniae [28] = assay: Antibacterial activity against Klebsiella pneumoniae at 50 ug/ml after 24 hrs by agar well diffusion method; details: read-out: DIZ
Escherichia coli [29] = assay: Antibacterial activity against Escherichia coli ATCC 8739 at 500 ug/ml after 24 hrs by agar well diffusion method; details: ATCC 8739, 24 h, read-out: DIZ
Klebsiella pneumoniae [30] = assay: Antibacterial activity against Klebsiella pneumoniae at 100 ug/ml after 24 hrs by agar well diffusion method; details: read-out: DIZ
Staphylococcus aureus [31] = assay: Antibacterial activity against Staphylococcus aureus ATCC 6538 at 50 ug/ml after 24 hrs by agar well diffusion method; details: ATCC 6538, 24 h, read-out: DIZ
Aspergillus flavus [32] = assay: Antifungal activity against Aspergillus flavus at 50 ug/ml after 72 hrs by agar well diffusion method; details: read-out: DIZ
Aspergillus flavus [33] = assay: Antifungal activity against Aspergillus flavus at 100 ug/ml after 72 hrs by agar well diffusion method; details: read-out: DIZ
Aspergillus flavus [34] = assay: Antifungal activity against Aspergillus flavus after 72 hrs by agar well diffusion method
Aspergillus niger [35] = assay: Antifungal activity against Aspergillus niger after 72 hrs by agar well diffusion method
Fusarium oxysporum [36] = assay: Antifungal activity against Fusarium oxysporum after 72 hrs by agar well diffusion method
Rhizoctonia solani [37] = assay: Antifungal activity against Rhizoctonia solani after 72 hrs by agar well diffusion method
Bacillus subtilis [38] = assay: Antibacterial activity against Bacillus subtilis after 24 hrs by agar well diffusion method
Staphylococcus aureus [39] = assay: Antibacterial activity against Staphylococcus aureus ATCC 6538 after 24 hrs by agar well diffusion method; details: ATCC 6538, 24 h
Escherichia coli [40] = assay: Antibacterial activity against Escherichia coli ATCC 8739 after 24 hrs by agar well diffusion method; details: ATCC 8739, 24 h
Klebsiella pneumoniae [41] = assay: Antibacterial activity against Klebsiella pneumoniae after 24 hrs by agar well diffusion method
Aspergillus flavus [42] = assay: Antifungal activity against Aspergillus flavus at 500 ug/ml after 72 hrs by agar well diffusion method; details: read-out: DIZ
Aspergillus flavus [43] = assay: Antifungal activity against Aspergillus flavus at 300 ug/ml after 72 hrs by agar well diffusion method; details: read-out: DIZ
Aspergillus flavus [44] = assay: Antifungal activity against Aspergillus flavus at 200 ug/ml after 72 hrs by agar well diffusion method; details: read-out: DIZ
Aspergillus niger [45] = assay: Antifungal activity against Aspergillus niger at 500 ug/ml after 72 hrs by agar well diffusion method; details: read-out: DIZ
Aspergillus niger [46] = assay: Antifungal activity against Aspergillus niger at 300 ug/ml after 72 hrs by agar well diffusion method; details: read-out: DIZ
Aspergillus niger [47] = assay: Antifungal activity against Aspergillus niger at 200 ug/ml after 72 hrs by agar well diffusion method; details: read-out: DIZ
Aspergillus niger [48] = assay: Antifungal activity against Aspergillus niger at 100 ug/ml after 72 hrs by agar well diffusion method; details: read-out: DIZ

Cn1cc(C=C2C(=O)OC(C)(C)OC2=O)c2ccccc21
zone of inhibition at 50 µg/mL (Aspergillus niger [1]): 6 mm
zone of inhibition at 500 µg/mL (Fusarium oxysporum [2]): 29 mm
zone of inhibition at 300 µg/mL (Fusarium oxysporum [3]): 21 mm
zone of inhibition at 200 µg/mL (Fusarium oxysporum [4]): 16 mm
zone of inhibition at 100 µg/mL (Fusarium oxysporum [5]): 12 mm
zone of inhibition at 50 µg/mL (Fusarium oxysporum [6]): 7 mm
zone of inhibition at 500 µg/mL (Rhizoctonia solani [7]): 29 mm
zone of inhibition at 300 µg/mL (Rhizoctonia solani [8]): 21 mm
zone of inhibition at 200 µg/mL (Rhizoctonia solani [9]): 16 mm
zone of inhibition at 100 µg/mL (Rhizoctonia solani [10]): 12 mm
zone of inhibition at 50 µg/mL (Rhizoctonia solani [11]): 7 mm
zone of inhibition at 500 µg/mL (Bacillus subtilis [12]): 23 mm
zone of inhibition at 300 µg/mL (Bacillus subtilis [13]): 15 mm
zone of inhibition at 200 µg/mL (Bacillus subtilis [14]): 12 mm
zone of inhibition at 100 µg/mL (Bacillus subtilis [15]): 9 mm
zone of inhibition at 50 µg/mL (Bacillus subtilis [16]): 4 mm
zone of inhibition at 500 µg/mL (Staphylococcus aureus [17]): 25 mm
zone of inhibition at 300 µg/mL (Staphylococcus aureus [18]): 18 mm
zone of inhibition at 200 µg/mL (Staphylococcus aureus [19]): 14 mm
zone of inhibition at 100 µg/mL (Staphylococcus aureus [20]): 10 mm
zone of inhibition at 300 µg/mL (Escherichia coli [21]): 20 mm
zone of inhibition at 200 µg/mL (Escherichia coli [22]): 16 mm
zone of inhibition at 100 µg/mL (Escherichia coli [23]): 13 mm
zone of inhibition at 50 µg/mL (Escherichia coli [24]): 8 mm
zone of inhibition at 500 µg/mL (Klebsiella pneumoniae [25]): 31 mm
zone of inhibition at 300 µg/mL (Klebsiella pneumoniae [26]): 23 mm
zone of inhibition at 200 µg/mL (Klebsiella pneumoniae [27]): 18 mm
zone of inhibition at 50 µg/mL (Klebsiella pneumoniae [28]): 9 mm
zone of inhibition at 500 µg/mL (Escherichia coli [29]): 30 mm
zone of inhibition at 100 µg/mL (Klebsiella pneumoniae [30]): 14 mm
zone of inhibition at 50 µg/mL (Staphylococcus aureus [31]): 6 mm
zone of inhibition at 50 µg/mL (Aspergillus flavus [32]): 4 mm
zone of inhibition at 100 µg/mL (Aspergillus flavus [33]): 9 mm
MIC (Aspergillus flavus [34]): 40 µg/mL (≈ 140 µM)
MIC (Aspergillus niger [35]): 40 µg/mL (≈ 140 µM)
MIC (Fusarium oxysporum [36]): 35 µg/mL (≈ 123 µM)
MIC (Rhizoctonia solani [37]): 35 µg/mL (≈ 123 µM)
MIC (Bacillus subtilis [38]): 30 µg/mL (≈ 105 µM)
MIC (Staphylococcus aureus [39]): 25 µg/mL (≈ 87.6 µM)
MIC (Escherichia coli [40]): 15 µg/mL (≈ 52.6 µM)
MIC (Klebsiella pneumoniae [41]): 15 µg/mL (≈ 52.6 µM)
zone of inhibition at 500 µg/mL (Aspergillus flavus [42]): 23 mm
zone of inhibition at 300 µg/mL (Aspergillus flavus [43]): 15 mm
zone of inhibition at 200 µg/mL (Aspergillus flavus [44]): 12 mm
zone of inhibition at 500 µg/mL (Aspergillus niger [45]): 25 mm
zone of inhibition at 300 µg/mL (Aspergillus niger [46]): 18 mm
zone of inhibition at 200 µg/mL (Aspergillus niger [47]): 14 mm
zone of inhibition at 100 µg/mL (Aspergillus niger [48]): 10 mm
